Ends that are not written are not given here.
Experiments:
[1] = tested on: gastric emptying in food-restricted mice; assay: Gastric emptying in food-restricted mice; assay type: in vivo; conditions: i.p., 2 h after hormone treatment, FIG. 4e
Protocol: (§1) FIG. 4. […] ACTH contents in culture media and serum were determined using a radioimmunoassay. For in vivo studies, male rats were injected i.p. with test peptides (2 nmoles/kg B.W.) and sacrificed 30 mm later. Data are mean SEM (N=4). FIG. 4c. Anti-edema response regulated by stresscopins. Stresscopin 1 (20 nmoles/kg), stresscopin 2 (100 nmoles/kg), and related hormones (20 nmoles/kg) suppress heat-induced paw edema formation in anaesthetized rats (N=6). FIG. 4d. Cumulative food intake in mice treated with stresscopin 1 (left panel, N=6) and stresscopin 2 (right panel, N=4) peptides and other hormones at 2, 4, and 8 h after treatment. FIG. 4e. Reduction of gastric emptying by stresscopin 1 (blank bars, 8 nmoles/kg; hatched bars, 80 nmoles/kg), stresscopin 2 (blank bars, 80 nmoles/kg; hatched bars, 200 nmoles/kg), and related hormones (blank bars, 8 nmoles/kg; hatched bars, 80 nmoles/kg) at 2 h after hormone treatment (N=6). The rates of gastric emptying were calculated by the formula (wet weight of stomach at 2 h after treatment/wet weight of stomach in fed animals sacrificed at 0 h). SCP1 is stresscopin 1; SCP2 is stresscopin 2; UCN is urocortin; SCP1 (11-43) is truncated stresscopin 1 with the first 10 amino acids deleted.
Effects on gastric emptying in food-restricted mice. To study the effects on gastric emptying, mice were deprived of food for 16 h with free access to water. The fasted mice were then given free access to preweighed pellets for 90 min. and were injected i.p. with different hormones or saline. The mice were deprived of food again after i.p. injection and sacrificed by cervical dislocation at 2 h. after injection. The stomach was excised at point of the pylorus and cardia before determination of its wet weight. Gastric emptying was calculated by comparison with stomach weight of control mice sacrificed at 0 h. following injection. See, Asakawa, A. et al. (1999) Gastroenterology 116:1287-1292.

[2] = tested on: heat-induced paw edema in anaesthetized rats; assay: Heat-induced paw edema formation in anaesthetized rats; assay type: in vivo, rat; conditions: i.p., FIG. 4c
Protocol: as §1
Effects on heat-induced paw edema formation in anaesthetized rats. The anti-inflammatory effect of stresscopin and related peptides were assayed using an established model (Turnbull et al. (1996) Euro. J. Pharmacol. 303:213-216). Briefly, 5-week-old male Sprague-Dawley rats were injected with […] of the testing peptide and anaesthetized with ketamine (100 mg/Kg). Thirty min. later, paw edema was induced following a one minute exposure to hot water at 58° C. The animals were sacrificed 30 min later. Both paws were removed at the ankle joint and weighed. The degree of edema was estimated as the differences in weight gain between the heated and unheated paw divided by the weight of the unheated paw.

[3] = target: T1, CRHR2-containing rat cardiac A7r5 cells (Rattus norvegicus, UniProt P47866); assay: cAMP production in CRHR2-containing rat cardiac A7r5 cells; assay type: cell-based; conditions: harvested 16 h after treatment (FIG. 3a)
T1 construct: cells constitutively expressing CRH receptors; host or cells: A7r5 (rat)
T1 sequence (P47866 1-431 isoform P47866-2): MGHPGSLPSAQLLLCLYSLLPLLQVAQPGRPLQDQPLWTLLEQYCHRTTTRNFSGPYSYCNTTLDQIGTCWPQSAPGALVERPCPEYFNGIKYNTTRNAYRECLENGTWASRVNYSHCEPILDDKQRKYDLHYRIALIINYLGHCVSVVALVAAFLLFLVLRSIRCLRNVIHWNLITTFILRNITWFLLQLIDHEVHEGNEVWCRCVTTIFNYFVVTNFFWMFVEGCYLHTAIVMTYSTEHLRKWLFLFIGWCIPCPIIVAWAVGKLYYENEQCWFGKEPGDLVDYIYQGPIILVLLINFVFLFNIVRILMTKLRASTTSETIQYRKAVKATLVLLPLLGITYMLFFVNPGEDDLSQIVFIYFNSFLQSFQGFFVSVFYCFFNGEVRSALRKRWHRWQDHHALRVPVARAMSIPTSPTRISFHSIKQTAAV
Protocol: (§2) FIG. 3. […] Hormonal stimulation of cAMP production by FIG. 3a. CRHR2-containing rat cardiac A7r5 cells, FIG. 3b. CRHR1-containing human retinoblastoma Y79 cells, FIG. 3c. recombinant CRHR2, FIG. 3d. recombinant CRHR2 and, FIG. 3e. recombinant CRHR1. Cells incubated with the test peptide or vehicle were harvested at 16 h after treatment and heated to 95° C. for 5 mm to inactivate phosphodiesterase activity before cAMP measurement. FIG. 3f. […] Data are the mean SEM (N=4). SCP1-0.1, stresscopin 1 (0.1 nM); SCP1, stresscopin 1 (1 nM); SCP1(2-43), truncated stresscopin 1 with the first amino acid deleted; SCP1 (3-43), truncated stresscopin 1 with 2-amino-acid deletion; SCP1 (4-43), truncated stresscopin 1 with 3-amino-acid deletion; SCP1 (5-43), truncated stresscopin 1 with 4-amino-acid deletion; SCP1 (6-43), truncated stresscopin 1 with 5-amino-acid deletion; SCP1-NA-0.1, full-length stresscopin 1 devoid of amidation at the C-terminus (0.1 nM); SCP1-NA, full-length stresscopin 1 devoid of amidation at the C-terminus (1 nM); UCN, urocortin. FIGS. 3g and 3h. […] Data are mean SEM (N=3).
(§3) The receptor cDNA fragments were subcloned into the pcDNA3.1/Zeo vector with a prolactin signal peptide for secretion and triple FLAG/M1 epitope cassette upstream of the multiple cloning site. […] For the estimation of adenylate cyclase activation by stresscopin and related hormones, transfected cells were seeded at a concentration of 100,000 cell/well in 48 well culture plates in DMEM/F12 medium containing 0.1% BSA and 2.5mM IBMX for 16 h. Contents of cAMP in whole cell lysate were determined using a cAMP radioimmunoassay.

[4] = tested on: cultured rat anterior pituitary cells; assay: ACTH release by cultured anterior pituitary cells in vitro; assay type: cell-based; conditions: hormones 1 nM, 2 h at 37° C., FIG. 4a
Protocol: as §1
(§4) In Vivo and in Vitro assay of pituitary ACTH releasing activity. Anterior pituitaries were obtained from 6-week-old male Sprague-Dawley rats. […]

[5] = tested on: fasting mice; assay: Food intake and body weight in food-restricted mice; assay type: in vivo; conditions: for cumulative food intake: i.p., fasting mice, 2, 4 and 8 h after treatment, FIG. 4d; for Average body weight change/mouse / Average food intake/mouse: fasted animals, 2 h after treatment, N = 5
Protocol: as §1
Food intake and body weight in food-restricted mice. Six week-old male mice (20-25 g b.w.) of the inbreed Balb/C strain were housed individually in a regulated environment with 12L/12D light cycle. Before feeding tests, mice were deprived of food for 16 h with free access to water and injected with testing reagents i.p. at 10 AM the following day. Food intake was measured by placing preweighed pellets in the cage and weighing the uneaten pellets at 2, 4 and 8 h after injection. Body weight was also monitored at 0, 2, 4, and 8 h.

[6] = tested on: ACTH release in intact male rats; assay: ACTH secretion in vivo; design: species or system rat; conditions: i.p. 2 nmoles/kg, 30 min, FIG. 4b
Protocol: as §1, §4

[7] = tested on: recombinant CRHR2; assay: cAMP production by 293T cells transfected with recombinant CRHR2 (two isoforms); assay type: cell-based; conditions: for cAMP production mediated by recombinant CRHR2: 293T cells transiently transfected, two isoforms of CRHR2 (FIGS. 3c-3d)
recombinant CRHR2, sequence (Q13324 35-411 limits assumed): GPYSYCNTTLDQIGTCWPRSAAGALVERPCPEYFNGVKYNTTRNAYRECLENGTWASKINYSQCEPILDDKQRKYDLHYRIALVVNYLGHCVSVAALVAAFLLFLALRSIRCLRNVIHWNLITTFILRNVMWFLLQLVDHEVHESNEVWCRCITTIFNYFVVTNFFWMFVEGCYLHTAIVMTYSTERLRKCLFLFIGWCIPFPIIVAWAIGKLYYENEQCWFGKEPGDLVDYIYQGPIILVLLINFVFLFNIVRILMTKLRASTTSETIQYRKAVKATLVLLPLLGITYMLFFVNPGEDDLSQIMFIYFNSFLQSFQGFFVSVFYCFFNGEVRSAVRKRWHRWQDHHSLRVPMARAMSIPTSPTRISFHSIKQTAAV
Protocol: as §2, §3

[8] = tested on: CRH R2; assay: Receptor binding assay, displacement of 125I-urocortin; conditions: 293T cells transfected with CRHR2 isoforms (FIGS. 3g, 3h)
Protocol: as §2
Receptor Binding assay. […] After 60 min incubation at 37° C., the cell-associated ligand was estimated following centrifugation and repeated washing. Radioactivity of samples was determined in a GENESYS-counter (Laboratory Technologies, Inc., Maple Park, Ill.).

[9] = target: T2, CRHR1-containing human retinoblastoma Y79 cells (Homo sapiens, UniProt P34998); assay: cAMP production in CRHR1-containing human retinoblastoma Y79 cells; assay type: cell-based; conditions: harvested 16 h after treatment (FIG. 3b)
T2 construct: cells constitutively expressing CRH receptors; host or cells: Y79 (human retinoblastoma)
T2 sequence (P34998 24-415): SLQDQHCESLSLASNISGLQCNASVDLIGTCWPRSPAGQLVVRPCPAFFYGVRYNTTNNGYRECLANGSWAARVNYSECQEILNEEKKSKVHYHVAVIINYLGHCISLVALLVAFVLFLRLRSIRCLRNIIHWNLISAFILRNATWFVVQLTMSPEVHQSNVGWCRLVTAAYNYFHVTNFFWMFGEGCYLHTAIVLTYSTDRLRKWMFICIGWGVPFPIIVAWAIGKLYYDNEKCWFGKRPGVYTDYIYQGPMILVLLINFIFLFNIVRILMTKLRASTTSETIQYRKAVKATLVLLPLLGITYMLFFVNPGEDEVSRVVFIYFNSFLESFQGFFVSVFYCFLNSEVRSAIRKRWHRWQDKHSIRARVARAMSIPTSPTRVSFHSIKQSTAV
Protocol: (§5) CRHR1-containing human retinoblastoma Y79 cells, FIG. 3c. recombinant CRHR2, FIG. 3d. recombinant CRHR2 and, FIG. 3e. recombinant CRHR1. Cells incubated with the test peptide or vehicle were harvested at 16 h after treatment and heated to 95° C. for 5 mm to inactivate phosphodiesterase activity before cAMP measurement. […] Data are the mean SEM (N=4). SCP1-0.1, stresscopin 1 (0.1 nM); SCP1, stresscopin 1 (1 nM); SCP1(2-43), truncated stresscopin 1 with the first amino acid deleted; SCP1 (3-43), truncated stresscopin 1 with 2-amino-acid deletion; SCP1 (4-43), truncated stresscopin 1 with 3-amino-acid deletion; SCP1 (5-43), truncated stresscopin 1 with 4-amino-acid deletion; SCP1 (6-43), truncated stresscopin 1 with 5-amino-acid deletion; SCP1-NA-0.1, full-length stresscopin 1 devoid of amidation at the C-terminus (0.1 nM); SCP1-NA, full-length stresscopin 1 devoid of amidation at the C-terminus (1 nM); UCN, urocortin. […] Data are mean SEM (N=3).

[10] = target: T3, recombinant CRHR1 (Homo sapiens, UniProt P34998); assay: cAMP production by 293T cells transfected with recombinant CRHR1; assay type: cell-based; conditions: 293T cells transiently transfected (FIG. 3e)
T3 construct: prolactin signal peptide (N); expressed in transfected cells; host or cells: human 293T cells, pcDNA3.1/Zeo vector
T3 sequence (P34998 24-415): T2 sequence (P34998 24-415)
Protocol: as §5

cAMP production [3] | ability to bind CRHR2 (displacement of labeled urocortin) [8] | Substance | gastric emptying activity [1] | heat-induced edema formation ([2]; 20 nmoles/kg) | ACTH release in vitro [4] | cumulative food intake [5] | ACTH release in vivo [6] | cAMP production mediated by recombinant CRHR2 [7] | reduction in ability to stimulate cAMP production ([7]; compared to amidated stresscopin 1) [fold] | Average body weight change/mouse ([5]; 20 nM) [grams] | Average food intake/mouse ([5]; 20 nM) [grams] | cAMP production [9] | higher potency as compared to stresscopin 2 and the pufferfish peptide ([7]; activation of type-2 CRH receptors, cAMP) [fold] | heat-induced edema formation ([2]; 100 nmoles/kg) | Average body weight change/mouse ([5]; 2 nM) [grams] | Average food intake/mouse ([5]; 2 nM) [grams] | cAMP production mediated by recombinant CRHR1 [10]
stimulated cAMP production | – | CRH: corticotropin releasing hormone, 41-amino acid peptide; purchased from Sigma Biochemicals [reference compound] | suppressed gastric emptying activity | suppressed heat-induced edema formation | stimulated the release of ACTH | dose-dependently decreased food intake | stimulated the release of ACTH | stimulated cAMP production | – | – | – | – | – | – | – | – | –
– | – | SCP1-NA: full-length stresscopin 1 devoid of amidation at the C-terminus (HPGSRIVLSLDVILGLLQILLEQARARAAREQATTNARILARV-OH) | – | – | – | – | – | – | > 50 | – | – | – | – | – | – | – | –
stimulated cAMP production | bind | stresscopin 1: mature 43 amino acid peptide, SEQ ID NO:3, derived from a 112 amino acid precursor; selective CRH-R2 ligand (HPGSRIVLSLDVILGLLQILLEQARARAAREQATTNARILARV; listed as Homo sapiens) | suppressed gastric emptying activity | suppressed heat-induced edema formation | – | dose-dependently decreased food intake | – | potent agonists | – | 0.31 ± 0.14 | 0.185 | ineffective | > 10 | – | – | – | –
– | bind | stresscopin 2: mature peptide of 40 amino acids, SEQ ID NO:6, derived from a 161 amino acid precursor protein (TKFTLSLDVPTNIMNLLFNIAKAKNLRAQAAANAHLMAQI; listed as Homo sapiens) | suppressed gastric emptying activity | – | – | dose-dependently decreased food intake | – | potent agonists | – | 0.11 ± 0.1 | 0.152 | – | – | suppressed heat-induced edema formation | −0.19 ± 0.24 | 0.176 | –

Substance | cAMP production [3] | ability to bind CRHR2 (displacement of labeled urocortin) [8] | gastric emptying activity [1] | heat-induced edema formation ([2]; 20 nmoles/kg) | ACTH release in vitro [4] | cumulative food intake [5] | ACTH release in vivo [6] | cAMP production mediated by recombinant CRHR2 [7] | reduction in ability to stimulate cAMP production ([7]; compared to amidated stresscopin 1) [fold] | Average body weight change/mouse ([5]; 20 nM) [grams] | Average food intake/mouse ([5]; 20 nM) [grams] | cAMP production [9] | higher potency as compared to stresscopin 2 and the pufferfish peptide ([7]; activation of type-2 CRH receptors, cAMP) [fold] | heat-induced edema formation ([2]; 100 nmoles/kg) | Average body weight change/mouse ([5]; 2 nM) [grams] | Average food intake/mouse ([5]; 2 nM) [grams] | cAMP production mediated by recombinant CRHR1 [10]
urocortin: 40 amino acid peptide, ligand for the CRH receptors; purchased from Sigma Biochemicals (DNPSLSIDLTFHLLRTLLELARTQSQRERAEQNRIIFDSV; ends and bridges not checked; UniProt P55089 83-122, looked up) [reference compound] | stimulated cAMP production | – | suppressed gastric emptying activity | suppressed heat-induced edema formation | stimulated the release of ACTH | dose-dependently decreased food intake | stimulated the release of ACTH | stimulated cAMP production | – | – | – | stimulated cAMP production | – | – | – | – | stimulated cAMP production

From patent US7291341B2, “Stresscopins and their uses” (The Board of Trustees of the Leland Stanford Junior …, priority 2000, dated 2007)
